# Experimental data published in patent publication US20090069565A1, “NEW INDOLE DERIVATIVES AS FACTOR XA INHIBITORS” (priority 2001, published 2009).
# Where two headings read alike, the source gives them in different places.
# Target: human factor Xa (Homo sapiens, UniProt P00742)
# Test: Factor Xa assay (chromogenic, substrate S-2765);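 note: purified enzyme preincubated with inhibitor for 10 min before substrate addition, final reaction volume 100 µl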
# Assay type: biochemical
# Conditions: read-out: Ki(FXa)
# [1] = inhibition constant for factor Xa, purified enzyme 0.5 nM, substrate S-2765 140 μM, 25° C., pH 7.8, Ki=IC50/{1+(substrate concentration/Km)}
# human factor Xa, sequence (P00742 235-488 limits assumed): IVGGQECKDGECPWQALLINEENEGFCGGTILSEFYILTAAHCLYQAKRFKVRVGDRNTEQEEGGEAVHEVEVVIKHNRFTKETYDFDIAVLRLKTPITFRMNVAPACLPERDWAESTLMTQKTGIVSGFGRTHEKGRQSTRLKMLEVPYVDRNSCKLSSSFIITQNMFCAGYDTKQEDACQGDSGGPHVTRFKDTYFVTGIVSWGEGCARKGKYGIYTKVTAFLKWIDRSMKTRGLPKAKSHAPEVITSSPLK
# human factor Xa, sequence (P00742 41-179 partner limits assumed): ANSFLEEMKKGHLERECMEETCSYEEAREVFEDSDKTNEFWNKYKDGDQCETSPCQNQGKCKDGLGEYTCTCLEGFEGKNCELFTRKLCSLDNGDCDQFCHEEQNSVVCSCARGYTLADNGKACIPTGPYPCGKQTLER
Ki [1] [nM],Ki [nM],Compound
400,–,"CC(C)N1CCC(NC(=O)c2cc3ccccc3n2Cc2cc(-c3ccc(Cl)cc3)no2)CC1 [Example 211, 1-[3-(4-Chloro-phenyl)-isoxazol-5-ylmethyl]-1H-indole-2-carboxylic acid (1-isopropyl-piperidin-4-yl)-amide]"
810,–,"CC(C)N1CCC(NC(=O)c2cc3ccccc3n2Cc2cc(-c3ccc(Cl)cc3)on2)CC1 [Example 212, 1-[5-(4-Chloro-phenyl)-isoxazol-3-ylmethyl]-1H-indole-2-carboxylic acid (1-isopropyl-piperidin-4-yl)-amide]"
2230,–,"CC(C)N1CCC(NC(=O)c2cc3ccccc3n2Cc2nc(-c3ccc(Cl)cc3)no2)CC1 [Example 213, 1-[3-(4-Chloro-phenyl)-[1,2,4]oxadiazol-5-ylmethyl]-1H-indole-2-carboxylic acid (1-isopropyl-piperidin-4-yl)-amide]"
–,52,"CC(C)N1CCC(NC(=O)c2cc3cc(S(C)(=O)=O)ccc3n2CC(=O)Nc2ccc(Cl)cn2)CC1 [Example 214, 1-[(5-Chloro-pyridin-2-ylcarbamoyl)-methyl]-5-methanesulfonyl-1H-indole-2-carboxylic acid (1-isopropyl-piperidin-4-yl)-amide]"
–,23,"CC(C)N1CCC(NC(=O)c2cc3cc(S(C)(=O)=O)ccc3n2CC(=O)Nc2ccc(Cl)cc2)CC1 [Example 215, 1-[(4-Chloro-phenylcarbamoyl)-methyl]-5-methanesulfonyl-1H-indole-2-carboxylic acid (1-isopropyl-piperidin-4-yl)-amide]"
–,9,"CC(C)N1CCC(NC(=O)c2cc3cc(Cl)ccc3n2CC(=O)Nc2ccc(Cl)cn2)CC1 [Example 216, 5-Chloro-1-[(5-chloro-pyridin-2-ylcarbamoyl)-methyl]-1H-indole-2-carboxylic acid (1-isopropyl-piperidin-4-yl)-amide]"
–,700,"CC(C)N1CCC(NC(=O)c2cc3cc(F)ccc3n2CC(=O)Nc2ccc(Cl)cn2)CC1 [Example 217, 1-[(5-Chloro-pyridin-2-ylcarbamoyl)-methyl]-5-fluoro-1H-indole-2-carboxylic acid (1-isopropyl-piperidin-4-yl)-amide]"
–,1,"CC(C)N1CCC(NC(=O)c2cc3cc(F)cc(F)c3n2CC(=O)Nc2ccc(Cl)cn2)CC1 [Example 218, 1-[(5-Chloro-pyridin-2-ylcarbamoyl)-methyl]-5,7-difluoro-1H-indole-2-carboxylic acid (1-isopropyl-piperidin-4-yl)-amide]"
–,173,CCN1CC[C@H](NC(=O)c2cc3ccccc3n2Cc2cc(-c3ccc(Cl)s3)on2)C1 [Example 219]
–,102,"CCN1CC[C@@H](NC(=O)c2cc3ccccc3n2Cc2cc(-c3ccc(Cl)s3)on2)C1 [Example 220, R-1-[5-(5-Chloro-thiophen-2-yl)-isoxazol-3-ylmethyl]-1H-indole-2-carboxylic acid (1-ethyl-pyrrolidin-3-yl)-amide]"
–,110,"CCOC(=O)CN(C(=O)c1cc2c(C(F)(F)F)cccc2n1Cc1cc(-c2ccc(Cl)s2)on1)C1CCN(C(C)C)CC1 [Example 223, [{1-[5-(5-Chloro-thiophen-2-yl)-isoxazol-3-ylmethyl]-4-trifluoromethyl-1H-indole-2-carbonyl}-(1-isopropyl-piperidin-4-yl)-amino]-acetic acid ethyl ester]"

Compound,Ki [1] [nM],Ki [nM]
"CC(C)N1CC[C@@H](NC(=O)c2cc3ccccc3n2Cc2cc(-c3ccc(Cl)s3)on2)C1 [Example 221, R-1-[5-(5-Chloro-thiophen-2-yl)-isoxazol-3-ylmethyl]-1H-indole-2-carboxylic acid (1-isopropyl-pyrrolidin-3-yl)-amide]",48,–
"CC(C)N1CC[C@H](NC(=O)c2cc3ccccc3n2Cc2cc(-c3ccc(Cl)s3)on2)C1 [Example 222, S-1-[5-(5-Chloro-thiophen-2-yl)-isoxazol-3-ylmethyl]-1H-indole-2-carboxylic (1-isopropyl-pyrrolidin-3-yl)-amide]",103,–
